The structures appear in SMILES notation. “Also recorded” adds a separate entry of the source. Read-outs that look alike come from different tables or passages of the source.

Data set [1] deals with coupled thioredoxin (TX)/thioredoxin reductase (TXR)/NADPH system. In kind it is biochemical, bovine. The protocol: (§1) Biochemistry 21:6628-6633 (1982).
(§2) Data was then collected and plotted in Microsoft Excel. Error calculations, and graphical representations were performed in Microsoft Excel and Kaleidograph (ver. 3.5). Nonlinear data was graphically rendered using Kaleidograph. ANOVA and other statistical analyses were performed using SAS (ver. 8.2). Unless otherwise noted, significance level was set at 0.05, and error bars represent actual experimental standard deviation.
Table5, below, illustrates that various Formula (I) compounds (i.e., disulfide-containing compounds) of the present invention can serve as alternate substrate inhibitors for the coupled thioredoxin (TX)/thioredoxin reductase (TXR)/NADPH system as measured by the oxidation of NADPH. In Table5, the Formula (I) compounds were utilized at a concentration of 0.5 mM.

For data set [2], the target named is T1, glutathione reductase (GR) (Homo sapiens, UniProt P00390).
T1 sequence (P00390 44-522): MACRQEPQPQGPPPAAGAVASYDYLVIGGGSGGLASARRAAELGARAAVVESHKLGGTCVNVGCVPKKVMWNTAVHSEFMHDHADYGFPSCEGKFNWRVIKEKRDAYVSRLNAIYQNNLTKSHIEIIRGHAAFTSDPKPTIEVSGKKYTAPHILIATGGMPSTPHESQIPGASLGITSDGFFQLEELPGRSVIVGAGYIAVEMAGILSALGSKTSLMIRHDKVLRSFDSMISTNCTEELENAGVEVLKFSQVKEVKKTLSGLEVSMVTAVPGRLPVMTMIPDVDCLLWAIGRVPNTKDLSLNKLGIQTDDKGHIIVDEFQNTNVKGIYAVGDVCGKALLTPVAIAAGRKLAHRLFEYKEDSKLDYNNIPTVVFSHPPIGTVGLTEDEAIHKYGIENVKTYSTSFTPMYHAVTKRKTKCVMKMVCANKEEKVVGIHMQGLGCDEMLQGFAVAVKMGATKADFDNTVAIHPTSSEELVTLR
Description: NADPH oxidation by glutathione reductase, without or with GSH. In kind it is biochemical. How it is done:
(§3) Table 4, below, illustrates that various Formula (I) compounds (i.e., dithiol-containing compounds) may act as alternative substrate inhibitors for the coupled GRX/GSH/GR system as measured by NADPH oxidation. The Formula (I) compound was utilized at a concentration of 0.5 mM.

Data set [3] relates to patients with advanced, Stage IIIB/IV, non-small cell lung carcinoma (NSCLC), including the adenocarcinoma sub-type. Description: U.S. Phase II NSCLC Clinical Trial (dose-dense docetaxel/cisplatin with or without Tavocept™). In kind it is in vivo, human. Particulars: Tavocept™ arm vs non-Tavocept™ arm. An excerpt:
As utilized herein, the term “clinical trial” or “trial”, refers to: • (i) the Japan Phase III Clinical Trial disclosed in the present invention which was utilized to show the ability of Tavocept™ (also referred to in the literature as disodium 2,2′-dithio-bis-ethane sulfonate, dimesna, or BNP7787) to prevent and/or reduce peripheral neuropathy induced by paclitaxel/cisplatin combination therapy. The incidence and severity of adverse reactions, time to their onset, etc. and the like, were compared between patients treated with Tavocept™ and those given a placebo using Quality of Life (QOL) questionnaires (i.e., Peripheral Neuropathy Questionnaire (PNQ©) and CIPN-20)) and the National Cancer Institute-Common Toxicity Criteria (NCI-CTC). The effects of Tavocept™ on the Quality of Life (QOL) of patients under anticancer treatment were also evaluated using the QOL questionnaire, EORTC QLQ-C30. Whether or not Tavocept™ would affect the efficacy of paclitaxel/cisplatin combination therapy was also evaluated based on the response rate, aggravation-free survival period, and total survival period. […] Whether or not Tavocept™ would affect the efficacy of the dose-dense docetaxel/cisplatin combination therapy was also evaluated based on the response rate, aggravation-free survival period, and total survival period. […]

For data set [4], the target named is T2, thioredoxin reductase (TXR) (Bos taurus, UniProt O62768).
T2 sequence (O62768 1-499): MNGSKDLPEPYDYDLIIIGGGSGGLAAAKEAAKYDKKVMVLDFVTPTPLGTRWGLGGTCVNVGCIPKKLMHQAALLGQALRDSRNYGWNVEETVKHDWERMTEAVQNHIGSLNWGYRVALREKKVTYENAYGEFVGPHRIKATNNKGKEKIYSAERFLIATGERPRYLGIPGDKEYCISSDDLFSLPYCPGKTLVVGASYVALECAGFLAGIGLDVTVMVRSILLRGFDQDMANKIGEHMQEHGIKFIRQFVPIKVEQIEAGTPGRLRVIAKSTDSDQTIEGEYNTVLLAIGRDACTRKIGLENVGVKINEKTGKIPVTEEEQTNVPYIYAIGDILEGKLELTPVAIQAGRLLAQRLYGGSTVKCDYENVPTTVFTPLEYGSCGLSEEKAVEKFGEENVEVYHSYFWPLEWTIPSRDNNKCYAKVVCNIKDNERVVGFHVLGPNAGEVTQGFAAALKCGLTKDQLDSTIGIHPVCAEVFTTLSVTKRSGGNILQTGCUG
Description: NADPH oxidation by thioredoxin reductase only. Type of data set: biochemical. Particulars: listed as Tavocept™. How it is done:
as §1, §2

Data set [5] concerns the target T3, coupled glutaredoxin (GRX)/glutathione (GSH)/glutathione reductase (GR) system (Homo sapiens, UniProt P35754).
T3 sequence (P35754 1-106): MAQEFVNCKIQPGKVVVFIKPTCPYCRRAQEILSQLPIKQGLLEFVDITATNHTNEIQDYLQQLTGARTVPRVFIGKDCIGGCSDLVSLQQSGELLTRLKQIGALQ
Description: NADPH oxidation by coupled GRX/GSH/GR system. In kind it is biochemical. Particulars: in the presence of reduced glutathione and glutathione reductase. How it is done:
as §3

Data set [6] relates to mammalian thioredoxin reductase (TXR). Particulars: cited from earlier work.
In data set [7] the target is T1, glutathione reductase (GR). Particulars: cited from earlier work.
In data set [8] the test system is non-small cell lung carcinoma (NSCLC) cell lines. Description: Cytotoxicity in NSCLC cell lines. Type of data set: cell-based, human.
For the next data set, the system named is brain cancer cells. Description: Cytotoxicity in brain cancer cells. Conditions: oxaliplatin and mesna; observable but not statistically significant. In kind it is cell-based, human.
Data set [9] concerns ovarian cancer cell lines. Description: Cytotoxicity in ovarian cancer cell lines. In kind it is cell-based, human. Conditions: mesna (100 μM) in combination with oxaliplatin vs oxaliplatin alone controls.
Data set [10] deals with whole cells (reduction of TX/TXR and GRX substrates). Description: Whole cell mediated disulfide reduction. Type of data set: cell-based. Conditions: mesna in combination with cisplatin.

For the molecule `NC(CSSCCS(=O)(=O)O)C(=O)O` (stereo not drawn) [BNP7766], the “substrate activity / NADPH oxidation by TXR in the presence of TX (in words)” value (“substrate activity / NADPH oxidation” below) in data set [1] is “substrates”.
With `NC(CCSSCCS(=O)(=O)O)C(=O)O` (stereo not drawn) [BNP7768], the “substrate activity / NADPH oxidation” value in data set [1] is “substrates”.
For `N[C@@H](CCC(=O)N[C@@H](CSSCCS(=O)(=O)O)C(=O)NCC(=O)O)C(=O)O` [BNP7772], the “substrate activity / NADPH oxidation” value in data set [1] is on record as “substrates”. Moreover, the “substrate activity for glutathione reductase (in words)” value in data set [2] is given as “functions as an alternative substrate inhibitor”.
`N[C@@H](CSSCCS(=O)(=O)O)C(=O)NCC(=O)O` [BNP7776]: the “substrate activity / NADPH oxidation” value in data set [1] was “substrates”.
In the case of `O=S(=O)([O-])CCSSCCS(=O)(=O)[O-].[Na+].[Na+]` [BNP7787, disodium 2,2′-dithio-bis-ethane sulfonate], the “increase in patient (median) survival, adenocarcinoma” value in [3] (listed as Tavocept) is given as roughly 6.5 month; in [3] (listed as Tavocept™), 6.54 month. The “NADPH oxidation / substrate activity with thioredoxin reductase alone, absence of TX (in words)” value in data set [4] is on record as “indistinguishable from background; also recorded: not thioredoxin reductase alone”. Also, the “substrate activity for glutathione reductase (in words)” value in data set [2] was “not a substrate for glutathione reductase”. Further, in [5], the “activity with glutaredoxin (in words)” value is recorded as “substrate-like activity”.
Consider `CS(=O)(=O)OCCCCOS(C)(=O)=O` [busulfan], for which the “inhibition of TXR (in words)” value in data set [6] (literature studies) is “irreversibly inhibited TXR in a concentration- and time-dependent manner”. Also, the “inhibition of GR (in words)” value in data set [7] (literature studies) is listed as “not GR”.
As to `N.N.O=C([O-])C1(C(=O)[O-])CCC1.[Pt+2]` [carboplatin], the “inhibition of TXR (in words)” value in data set [6] (literature studies) is “could not inhibit either TXR or GR”. The “inhibition of GR (in words)” value in data set [7] (literature studies) was “could not inhibit either TXR or GR”.
On to `O=NN(CCCl)C(=O)NCCCl` [carmustine], for which the “inhibition of TXR (in words)” value in data set [6] (literature studies) was “can inhibit both GR and TXR”. Moreover, the “inhibition of GR (in words)” value in data set [7] (literature studies) is “can inhibit both GR and TXR”.
On to `O=C(O)CCCc1ccc(N(CCCl)CCCl)cc1` [chlorambucil], for which the “inhibition of TXR (in words)” value in [6] (literature studies) was “irreversibly inhibited TXR in a concentration- and time-dependent manner”. The “inhibition of GR (in words)” value in data set [7] (literature studies) is reported as “not GR”.
With `N.N.[Cl][Pt][Cl]` [cisplatin, cis-diamminedichloroplatinum], in [6] (literature studies), the “inhibition of TXR (in words)” value is given as “irreversibly inhibited TXR”. The “inhibition of GR (in words)” value in data set [7] (literature studies) is listed as “not GR”.
Turning to `O=P1(N(CCCl)CCCl)NCCCO1` (stereo not drawn) [cyclophosphamide], the “inhibition of TXR (in words)” value in data set [6] (literature studies) is “irreversibly inhibited TXR in a concentration- and time-dependent manner”. The “inhibition of GR (in words)” value in data set [7] (literature studies) is given as “not GR”.
Consider `O=P1(NCCCl)OCCCN1CCCl` (stereo not drawn) [ifosfamide], for which the “inhibition of TXR (in words)” value in data set [6] (literature studies) was “inhibited TXR”.
As to `N[C@@H](Cc1ccc(N(CCCl)CCCl)cc1)C(=O)O` [melphalan], the “inhibition of TXR (in words)” value in data set [6] (literature studies) is “irreversibly inhibited TXR in a concentration- and time-dependent manner”. Also, in [7] (literature studies), the “inhibition of GR (in words)” value is on record as “not GR”.
For the molecule `O=S(=O)(O)CCS` [mesna, sodium-2-mercaptoethane sulfonate], the “cytotoxic effect of oxaliplatin” value in data set [8] (mesna (100 μM) in combination with oxaliplatin vs oxaliplatin alone controls, NSCLC) is “markedly enhanced the cytotoxic effect”; in data set [9], “markedly enhanced the cytotoxic effect”. The “cytotoxic effect of paclitaxel” value in data set [8] (mesna (100 μM) in combination with paclitaxel vs paclitaxel alone controls) is recorded as “enhanced the cytotoxic effect”. Besides, in the data set with brain cancer cells, the oxaliplatin cytotoxicity entry is on record as “lesser increase in oxaliplatin cytotoxicity”. Also, the “reduction of α-lipoic acid (TX/TXR substrate) or hydroxyethyldisulfide (GRX substrate) by whole cells” value in data set [10] was “enhanced the reduction”.
For `N.N.O.[Cl][Pt+]` [monohydrated complex], the “inhibition of TXR (in words)” value in [6] (literature studies) is “irreversibly inhibited TXR”. Further, the “inhibition of GR (in words)” value in data set [7] (literature studies) is given as “not GR”.
For `O=C1[O][Pt]2([NH][C@@H]3CCCC[C@H]3[NH]2)[O]C1=O` [oxaliplatin], the “inhibition of TXR (in words)” value in data set [6] is “irreversibly inhibited TXR”. In addition, the “inhibition of GR (in words)” value in [7] was “not GR”.
With `N.N.[Cl][Pt+2][Cl]` [transplatin], the “inhibition of TXR (in words)” value in [6] (literature studies) is “irreversibly inhibited TXR”. Further, the “inhibition of GR (in words)” value in data set [7] (literature studies) was “not GR”.

(Values after patent US20160287540A1, “Increasing Cancer Patient Survival Time by Administration of Dithio-Containing Compounds” (BioNumerik Pharmaceuticals, Inc., priority 2015, published 2016).)
